Experimental data as given in patent publication US9371365B2, “Modified compstatin with peptide backbone and C-terminal modifications” (The Trustees of the University of Pennsylvania, priority 2009, dated 2016).

Biological target: T1, C3b (Homo sapiens, UniProt P01024)
T1 construct: biotin (chemical biotinylation of C3b)
Assay: SPR analysis of binding kinetics to immobilized C3b
Procedure: (§1) The kinetics of the interaction between C3b and each compstatin analog was analyzed by SPR on a Biacore 3000 instrument (GE Healthcare Corp., Piscataway, N.J.) at 25° C. using PBS-T (10 mM sodium phosphate, 150 mM NaCl, 0.005% Tween-20, pH 7.4) as the running buffer, as described above. In brief, biotinylated C3b (30 μg/mL) was immobilized on a streptavidin-coated sensor chip, and a two-fold serial dilution series (1 μM-500 pM) of each analog was injected for 2 min at 30 μl/min, with a dissociation phase of 5-10 min. Peptide [Trp(Me)^4]-Ac-compstatin was included in each experimental series as an internal control and reference. Data analysis was performed using Scrubber (BioLogic Software, Campbell, Australia). The signals from an untreated flow cell and an ensemble of buffer blank injections were subtracted to correct for buffer effects and injection artifacts. Processed biosensor data were globally fitted to a 1:1 Langmuir binding model, and the equilibrium dissociation constant (KD) was calculated from the equation KD=kd/ka. Peptide solutions were injected in duplicate in every experiment, and each screening assay was performed at least twice.
as §1, with “in Example 1.” for “above.”, “μg/ml)” for “μg/mL)”, “Peptide [Trp(Me)^4]-Ac-compstatin was included in each experimental series as an internal control and reference.” left out

T1 sequence (P01024 23-667 limits assumed): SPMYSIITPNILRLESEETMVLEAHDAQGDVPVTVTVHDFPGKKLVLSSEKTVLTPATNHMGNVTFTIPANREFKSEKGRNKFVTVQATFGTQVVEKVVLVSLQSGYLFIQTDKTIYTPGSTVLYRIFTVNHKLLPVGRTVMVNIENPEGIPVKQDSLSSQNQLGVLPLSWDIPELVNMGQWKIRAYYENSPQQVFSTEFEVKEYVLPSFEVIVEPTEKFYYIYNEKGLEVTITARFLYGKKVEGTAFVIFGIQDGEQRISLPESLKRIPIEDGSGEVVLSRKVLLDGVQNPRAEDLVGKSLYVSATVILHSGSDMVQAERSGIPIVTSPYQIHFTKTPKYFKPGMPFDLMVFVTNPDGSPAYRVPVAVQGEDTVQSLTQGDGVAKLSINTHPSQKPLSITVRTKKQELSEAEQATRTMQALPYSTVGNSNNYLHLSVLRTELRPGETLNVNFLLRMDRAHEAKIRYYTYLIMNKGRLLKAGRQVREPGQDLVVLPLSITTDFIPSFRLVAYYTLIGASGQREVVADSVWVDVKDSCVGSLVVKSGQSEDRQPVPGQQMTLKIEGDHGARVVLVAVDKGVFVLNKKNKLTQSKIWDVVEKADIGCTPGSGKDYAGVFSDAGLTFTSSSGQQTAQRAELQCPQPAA
T1 sequence (P01024 749-1663 limits assumed): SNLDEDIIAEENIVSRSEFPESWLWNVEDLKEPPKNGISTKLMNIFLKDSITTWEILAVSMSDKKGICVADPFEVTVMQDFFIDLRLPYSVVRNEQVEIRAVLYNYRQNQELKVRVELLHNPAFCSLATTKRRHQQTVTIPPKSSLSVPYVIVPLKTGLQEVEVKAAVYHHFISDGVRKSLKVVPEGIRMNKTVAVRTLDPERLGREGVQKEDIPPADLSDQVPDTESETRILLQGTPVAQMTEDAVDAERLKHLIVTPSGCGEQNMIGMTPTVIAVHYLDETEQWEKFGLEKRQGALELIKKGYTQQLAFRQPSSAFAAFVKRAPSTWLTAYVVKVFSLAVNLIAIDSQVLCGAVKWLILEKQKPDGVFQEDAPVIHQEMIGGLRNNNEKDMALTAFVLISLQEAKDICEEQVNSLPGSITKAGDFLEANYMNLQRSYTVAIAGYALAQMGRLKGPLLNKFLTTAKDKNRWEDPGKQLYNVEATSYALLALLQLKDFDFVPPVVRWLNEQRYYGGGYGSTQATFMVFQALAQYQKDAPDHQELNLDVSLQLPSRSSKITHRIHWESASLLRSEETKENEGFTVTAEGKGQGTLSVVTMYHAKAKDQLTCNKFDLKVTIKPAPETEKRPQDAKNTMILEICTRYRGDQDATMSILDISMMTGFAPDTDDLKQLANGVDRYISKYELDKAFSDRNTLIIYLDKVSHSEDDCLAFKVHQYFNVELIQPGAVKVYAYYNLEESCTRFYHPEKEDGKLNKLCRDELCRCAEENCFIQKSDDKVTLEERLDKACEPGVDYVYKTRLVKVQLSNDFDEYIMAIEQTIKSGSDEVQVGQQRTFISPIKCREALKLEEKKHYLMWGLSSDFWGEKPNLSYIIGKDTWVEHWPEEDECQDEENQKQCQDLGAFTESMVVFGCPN

CC[C@H](C)[C@H](NC(=O)[C@@H]1CSSC[C@H](NC(=O)[C@@H](NC(C)=O)[C@@H](C)CC)C(=O)N[C@@H](C(C)C)C(=O)N[C@@H](Cc2cn(C)c3ccccc23)C(=O)N[C@@H](CCC(N)=O)C(=O)N[C@@H](CC(=O)O)C(=O)N[C@@H](Cc2c[nH]c3ccccc23)C(=O)N(C)CC(=O)N[C@@H](C)C(=O)N[C@@H](Cc2c[nH]cn2)C(=O)N[C@@H](CCCNC(=N)N)C(=O)N1)C(N)=O [Peptide 17, Ac−Ic[CV(^1−MeW)QDW(^N−MeG)AHRC]I-NH2]
fold stronger affinity than peptide 14 (SPR): 2.7 fold
kd (SPR, 25° C., PBS-T): 6.6 10^−3/s
Koff (SPR, Table 2-1): 6.6 10^−3, s^−1
Kon (SPR, Table 2-1): 1.0 10^6, M^−1 · s^−1
kon (pH 7.4, read-out: ka): 1.5e+06 M⁻¹ s⁻¹
rKD SPR (relative to peptide 14): 2.7
rka (relative to peptide 14): 1.5
rkd (relative to peptide 14): 1.7
